Assay results as given in US20060148730A1, “Method of treating tuberculosis” (priority 2003, published 2006).
≈ marks a conversion by molar mass, not a printed value. Where two headings read alike, the source gives them in different places.

Experiments:
[1] = system: VERO cells; test: Cytotoxicity against VERO cells (MTS, 72 hours); details: result in words
[2] = system: M. tuberculosis H37Rv; test: MIC vs. M. tuberculosis H37Rv, microplate Alamar Blue assay (MABA); format: cell-based
[3] = Table 3, parallel-synthesis carbazate library products, SPE purified, read-out: MIC

Compound	MIC [2, 3]	also measured
CC[C@H]1OC(=O)[C@@](C)(F)C(=O)[C@H](C)[C@@H](O[C@@H]2O[C@H](C)C[C@H](N(C)C)[C@H]2O)[C@](C)(OCC#Cc2cc(-c3cnc4ccccc4c3)no2)C[C@@H](C)C(=O)[C@H](C)[C@H]2NC(=O)O[C@@]21C [Compound A323348]	–	in vitro toxicity / cytotoxicity in words [1]: comparable to clarithromycin; MIC ([2]; Table 1a, 11,12-carbamate derivatives, anti-TB activity, read-out: MIC): 0.38 µM (≈ 0.323 µg/mL); MIC ([2]; read-out: minimum inhibitory concentration (MIC) against M. tuberculosis): 0.38 µM (≈ 0.323 µg/mL); anti-TB activity / MIC in words ([2]; result in words): very low
CC[C@H]1OC(=O)[C@H](C)[C@@H](O[C@H]2CC(C)(OC)[C@@H](O)[C@H](C)O2)[C@H](C)[C@@H](O[C@@H]2O[C@H](C)C[C@H](N(C)C)[C@H]2O)[C@](C)(OC)C[C@@H](C)C(=O)[C@H](C)[C@H]2N(NCc3sccc3Oc3ccccc3)C(=O)O[C@]12C (stereo partly shown) [G4′]	13 µM (≈ 12.7 µg/mL)	–
CC[C@H]1OC(=O)[C@H](C)[C@@H](O[C@H]2CC(C)(OC)[C@@H](O)[C@H](C)O2)[C@H](C)[C@@H](O[C@@H]2O[C@H](C)C[C@H](N(C)C)[C@H]2O)[C@](C)(OC)C[C@@H](C)C(=O)[C@H](C)[C@H]2N(NCC3=Cc4ccccc4OC3)C(=O)O[C@]12C (stereo partly shown) [G6′]	11 µM (≈ 10.3 µg/mL)	–
CC[C@H]1OC(=O)[C@H](C)[C@@H](O[C@H]2CC(C)(OC)[C@@H](O)[C@H](C)O2)[C@H](C)[C@@H](O[C@@H]2O[C@H](C)C[C@H](N(C)C)[C@H]2O)[C@](C)(OC)C[C@@H](C)C(=O)[C@H](C)[C@H]2N(NCc3cc(Cl)cc(Br)c3O)C(=O)O[C@]12C (stereo partly shown) [G8′]	14 µM (≈ 14.1 µg/mL)	–
CC[C@H]1OC(=O)[C@H](C)[C@@H](O[C@H]2CC(C)(OC)[C@@H](O)[C@H](C)O2)[C@H](C)[C@@H](O[C@@H]2O[C@H](C)C[C@H](N(C)C)[C@H]2O)[C@](C)(OC)C[C@@H](C)C(=O)[C@H](C)[C@H]2N(NCC3CSN=N3)C(=O)O[C@]12C (stereo partly shown) [G10′]	>16 µM	–
CC[C@H]1OC(=O)[C@H](C)[C@@H](O[C@H]2CC(C)(OC)[C@@H](O)[C@H](C)O2)[C@H](C)[C@@H](O[C@@H]2O[C@H](C)C[C@H](N(C)C)[C@H]2O)[C@](C)(OC)C[C@@H](C)C(=O)[C@H](C)[C@H]2N(NCc3ccc(N4CCC(c5ccccc5OC)CC4)c([N+](=O)[O-])c3)C(=O)O[C@]12C (stereo partly shown) [G12′]	19 µM (≈ 21.1 µg/mL)	–
CC[C@H]1OC(=O)[C@H](C)[C@@H](O[C@H]2CC(C)(OC)[C@@H](O)[C@H](C)O2)[C@H](C)[C@@H](O[C@@H]2O[C@H](C)C[C@H](N(C)C)[C@H]2O)[C@](C)(OC)C[C@@H](C)C(=O)[C@H](C)[C@H]2N(NCc3c(Cl)cccc3Cl)C(=O)O[C@]12C (stereo partly shown) [H1′]	11 µM (≈ 10.4 µg/mL)	–
CC[C@H]1OC(=O)[C@H](C)[C@@H](O[C@H]2CC(C)(OC)[C@@H](O)[C@H](C)O2)[C@H](C)[C@@H](O[C@@H]2O[C@H](C)C[C@H](N(C)C)[C@H]2O)[C@](C)(OC)C[C@@H](C)C(=O)[C@H](C)[C@H]2N(NCc3cccc4nsnc34)C(=O)O[C@]12C (stereo partly shown) [H3′]	>22 µM	–
CC[C@H]1OC(=O)[C@H](C)[C@@H](O[C@H]2CC(C)(OC)[C@@H](O)[C@H](C)O2)[C@H](C)[C@@H](O[C@@H]2O[C@H](C)C[C@H](N(C)C)[C@H]2O)[C@](C)(OC)C[C@@H](C)C(=O)[C@H](C)[C@H]2N(NCc3ccc4c(c3)nnn4C)C(=O)O[C@]12C (stereo partly shown) [H7′]	>22 µM	–
CC[C@H]1OC(=O)[C@H](C)[C@@H](O[C@H]2CC(C)(OC)[C@@H](O)[C@H](C)O2)[C@H](C)[C@@H](O[C@@H]2O[C@H](C)C[C@H](N(C)C)[C@H]2O)[C@](C)(OC)C[C@@H](C)C(=O)[C@H](C)[C@H]2N(NCc3c(Sc4ccc(Cl)cc4)nc4sccn34)C(=O)O[C@]12C (stereo partly shown) [H11′]	35.4 µM (≈ 37.8 µg/mL)	–
CCC1OC(=O)C(C)C(OC2CC(C)(OC)C(OC(C)=O)C(C)O2)C(C)C(OC2OC(C)CC(N(C)C)C2OC(C)=O)C(C)(OC)CC(C)C(=O)C(C)C2N(NCCCc3ccnc4ccccc34)C(=O)OC12C (stereo not shown) [ITR0005]	–	MIC ([2]; Table 5, read-out: MIC): 7.7 µM (≈ 8.02 µg/mL)
CCC1OC(=O)C(C)C(OC2CC(C)(OC)C(O)C(C)O2)C(C)C(OC2OC(C)CC(N(C)C)C2O)C(C)(OC)CC(C)C(=NOC2CCCNC2)C(C)C(O)C1(C)O (stereo not shown) [ITR0009]	–	MIC ([2]; Table 4, read-out: MIC): 24 µM (≈ 20.3 µg/mL)
CCC1OC(=O)C(C)C(OC2CC(C)(OC)C(O)C(C)O2)C(C)C(OC2OC(C)CC(N(C)C)C2O)C(C)(OC)CC(C)C(=NOC2CCCN(C(=O)OCc3ccccc3)C2)C(C)C(O)C1(C)O (stereo not shown) [ITR0011]	–	MIC ([2]; Table 4, read-out: MIC): 6.0 µM (≈ 5.88 µg/mL)
